According to patent publication US10221177B2 (HYDRA BIOSCIENCES, INC., priority 2014, dated 2019):
Where “and” joins values, the source holds several entries; their conditions need not be identical. Identical values can stand only once.

Assays:
[1] = system: formalin-induced pain behaviors in the rat; assay: Formalin-induced pain test (formalin model), duration of pain behaviors; assay type: in vivo
How it was run: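 Rats dosed orally with vehicle or compound (solutions with DMSO, Solutol, Labrasol, Tween-80, Cremophor EL, or methylcellulose suspensions) one hour before intraplantar injection of 50 μL 3% formalin into hind paw. Duration of pain behaviors counted by blinded observer; Phase I covers 0-5 min; comparison to vehicle.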

[2] = system: CFA-induced cold hypersensitivity of the hind paw; assay: CFA-induced pain test, cold hypersensitivity (cold plate paw withdrawal latency); assay type: in vivo; conditions: cold plate 1° C.; for Average PWL Post-Treatment / PWL Change: 1-2 hour pre-treatment; for Average PWL Post-CFA: baseline before dosing
Method: Embodiments of the invention may be efficacious in the treatment of inflammatory pain. Compounds of the invention were tested by the CFA-induced pain test method. Compounds were formulated as solutions in water with various solvents and excipients including dimethyl sulfoxide (DMSO), polyethylene glycol (15)-hydroxystearate (Solutol®, Sigma-Aldrich), caprylocaproyl macrogol-8 glyceride (Labrasol®, Sigma-Aldrich), polysorbate-80 (Tween®-80, Sigma-Aldrich), and polyoxyl 35 castor oil (Cremophor® EL, BASF Corp.); or suspensions in methylcellulose as indicated in Table 3 for oral delivery. Briefly, the hind paw was sensitized to cold temperature (allodynic) by administering 0.1 mL of Complete Freund's Adjuvant (CFA) to the right hind paw. Three days later, the time taken for the animal to lift its CFA-injected paw was recorded compared to its un-injected normal left hind paw. […] To avoid tissue damage the maximum cut-off time was 5 minutes. Animals that were allodynic (average PWL to the first three pain behaviors <150 seconds for the CFA-injected hind paw: ˜≥50% difference between the normal and CFA-injected paw) were included in the study and subsequently randomized across treatment groups. The following day, the animals were dosed orally under blinded conditions. Following the 1-2 hour pre-treatment time, the post-dose PWL readings were again taken. The efficacy of the drug treatment was assessed by comparing the PWL in the drug treatment animals to those animals that receive the vehicle. P values, when indicated, indicate significance compared Vehicle.

human TRPA1 = human TRPA1 (Homo sapiens (Human), UniProt O75762); assay: In vitro inhibition of human TRPA1, whole cell patch configuration; assay type: cell-based; conditions: current activation 10 μM AITC, tested concentrations 320 pM to 3.2 μM, read-out: hTRPA1 IC50
How it was run: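 Compound antagonism measured from voltage ramps (±100 or ±80 mV, 400 ms, every 4 s from −40 mV), analysed at −80 and 80 mV, or at constant −60 mV. HEPES-buffered NaCl bath, pH 7.4, EGTA or 2 mM Ca2+; temperature set by perfusion, within ±2° C; no junction-potential correction.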

[3] = 1 mg/kg PO one hour prior to formalin, solution in 4% DMSO, 5% Tween-80, 20% Cremophor EL, 71% water
[4] = 3 mg/kg PO one hour prior to formalin, solution in 4% DMSO, 5% Tween-80, 20% Cremophor EL, 71% water
[5] = 10 mg/kg PO one hour prior to formalin, solution in 4% DMSO, 5% Tween-80, 20% Cremophor EL, 71% water
[6] = 0.3 mg/kg PO, solution in 4% DMSO, 5% Tween-80, 20% Cremophor EL, and 71% water
[7] = 1 mg/kg PO, solution in 4% DMSO, 5% Tween-80, 20% Cremophor EL, and 71% water
[8] = 3 mg/kg PO, solution in 4% DMSO, 5% Tween-80, 20% Cremophor EL, and 71% water
[9] = group 0.3 mg/kg PO, solution in 4% DMSO, 5% Tween-80, 20% Cremophor EL, and 71% water
[10] = group 1 mg/kg PO, solution in 4% DMSO, 5% Tween-80, 20% Cremophor EL, and 71% water
[11] = group 3 mg/kg PO, solution in 4% DMSO, 5% Tween-80, 20% Cremophor EL, and 71% water
[12] = 1 mg/kg PO one hour prior to formalin, suspension in 0.5% methylcellulose
[13] = 3 mg/kg PO one hour prior to formalin, suspension in 0.5% methylcellulose
[14] = 10 mg/kg PO one hour prior to formalin, suspension in 0.5% methylcellulose
[15] = 30 mg/kg PO one hour prior to formalin, suspension in 0.5% methylcellulose
[16] = 0.3 mg/kg PO, suspension in 0.5% methylcellulose
[17] = 1 mg/kg PO, suspension in 0.5% methylcellulose
[18] = 3 mg/kg PO, suspension in 0.5% methylcellulose

Sequence of human TRPA1 (O75762 whole entry, the tested form may be a part): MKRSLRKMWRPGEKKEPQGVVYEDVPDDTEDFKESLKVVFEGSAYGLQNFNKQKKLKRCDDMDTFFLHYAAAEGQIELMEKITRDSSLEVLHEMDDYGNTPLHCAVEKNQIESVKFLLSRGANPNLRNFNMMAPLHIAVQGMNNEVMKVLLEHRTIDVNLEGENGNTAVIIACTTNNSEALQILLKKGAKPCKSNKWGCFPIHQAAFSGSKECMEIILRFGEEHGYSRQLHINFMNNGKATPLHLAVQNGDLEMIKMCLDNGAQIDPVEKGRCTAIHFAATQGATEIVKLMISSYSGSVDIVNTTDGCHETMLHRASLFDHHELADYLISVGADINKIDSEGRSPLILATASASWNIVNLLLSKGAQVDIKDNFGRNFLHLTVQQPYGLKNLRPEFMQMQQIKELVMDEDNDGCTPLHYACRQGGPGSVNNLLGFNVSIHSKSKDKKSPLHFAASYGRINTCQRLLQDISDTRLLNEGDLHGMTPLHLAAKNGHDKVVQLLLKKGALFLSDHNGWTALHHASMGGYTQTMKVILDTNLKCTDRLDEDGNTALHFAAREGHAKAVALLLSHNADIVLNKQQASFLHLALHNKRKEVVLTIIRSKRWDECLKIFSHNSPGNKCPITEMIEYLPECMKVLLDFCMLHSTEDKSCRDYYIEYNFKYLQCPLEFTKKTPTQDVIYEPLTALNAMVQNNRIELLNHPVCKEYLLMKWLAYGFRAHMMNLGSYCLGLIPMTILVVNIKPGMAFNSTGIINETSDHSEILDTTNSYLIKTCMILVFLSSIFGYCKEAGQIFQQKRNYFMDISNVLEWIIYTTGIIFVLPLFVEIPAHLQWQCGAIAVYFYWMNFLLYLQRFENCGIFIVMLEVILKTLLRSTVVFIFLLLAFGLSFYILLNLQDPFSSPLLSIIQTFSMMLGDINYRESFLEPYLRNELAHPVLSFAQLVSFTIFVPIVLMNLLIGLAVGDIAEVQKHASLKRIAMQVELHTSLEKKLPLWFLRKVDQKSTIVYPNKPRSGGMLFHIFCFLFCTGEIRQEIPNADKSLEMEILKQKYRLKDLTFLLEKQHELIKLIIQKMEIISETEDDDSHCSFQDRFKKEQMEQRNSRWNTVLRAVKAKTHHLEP

## Cc1noc(Cn2c(=O)c3c(ncn3[C@@H](C)C(=O)Nc3cncc(-c4cnc(C(F)(F)F)nc4)n3)n(C)c2=O)n1 [Compound 160, (S)-2-(3-methyl-1-((3-methyl-1,2,4-oxadiazol-5-yl)methyl)-2,6-dioxo-2,3-dihydro-1H-purin-7(6H)-yl)-N-(6-(2-(trifluoromethyl)pyrimidin-5-yl)pyrazin-2-yl)propanamide]
[1]; [3]
  Duration (0-2 Minutes) Average: 68.6 s
  Duration (0-5 Minutes) Average: 167.3 s
[1]; [4]
  Duration (0-2 Minutes) Average: 78.1 s
  Duration (0-5 Minutes) Average: 232.0 s
[1]; [5]
  Duration (0-2 Minutes) Average: 42.5 s
  Duration (0-5 Minutes) Average: 150.4 s
[2]; [6]
  Average PWL Post-Treatment: 173.0
  PWL Change: 64.7 s
[2]; [7]
  Average PWL Post-Treatment: 269.6
  PWL Change: 161.5 s
[2]; [8]
  Average PWL Post-Treatment: 253.6
  PWL Change: 146.2 s
[2]; [9]
  Average PWL Post-CFA: 108.2
[2]; [10]
  Average PWL Post-CFA: 108.1
[2]; [11]
  Average PWL Post-CFA: 107.5
Human TRPA1
  IC50: 20 nM

## C[C@@H](C(=O)Nc1csc(-c2cnc(N3CC4CC4C3)nc2)n1)n1cnc2c1c(=O)n(CC#N)c(=O)n2C (stereo partly drawn) [Compound 34, (2S)—N-(2-(2-(3-azabicyclo[3.1.0]hexan-3-yl)pyrimidin-5-yl)thiazol-4-yl)-2-(1-(cyanomethyl)-3-methyl-2,6-dioxo-2,3-dihydro-1H-purin-7(6H)-yl)propanamide]
[1]; [5]
  Duration (0-2 Minutes) Average: 34.9 s
  Duration (0-5 Minutes) Average: 154.6 s
[2]; [6]
  Average PWL Post-Treatment: 185.6
  PWL Change: 80.7 s
[2]; [7]
  Average PWL Post-Treatment: 205.4
  PWL Change: 107.4 s
[2]; [8]
  Average PWL Post-Treatment: 272.6
  PWL Change: 169.0 s
[2]; [9]
  Average PWL Post-CFA: 104.9
[2]; [10]
  Average PWL Post-CFA: 98.0
[2]; [11]
  Average PWL Post-CFA: 103.6
Human TRPA1
  IC50: 1 nM

## CC(=O)Cn1c(=O)c2c(ncn2[C@@H](C)C(=O)Nc2cncc(-c3cnc(N4CC5C(C4)C5(F)F)nc3)n2)n(C)c1=O (stereo partly drawn) [Compound 74, (2S)—N-(6-(2-(6,6-difluoro-3-azabicyclo[3.1.0]hexan-3-yl)pyrimidin-5-yl)pyrazin-2-yl)-2-(3-methyl-2,6-dioxo-1-(2-oxopropyl)-2,3-dihydro-1H-purin-7(6H)-yl)propanamide]
[1]; [3]
  Duration (0-2 Minutes) Average: 94.8 s
  Duration (0-5 Minutes) Average: 169.0 s
[1]; [4]
  Duration (0-2 Minutes) Average: 78.3 s
  Duration (0-5 Minutes) Average: 172.9 s
[1]; [5]
  Duration (0-2 Minutes) Average: 62.3 s
  Duration (0-5 Minutes) Average: 152.6 s
[2]; [6]
  Average PWL Post-Treatment: 160.9
  PWL Change: 69.9 s
[2]; [7]
  Average PWL Post-Treatment: 271.3
  PWL Change: 181.0 s
[2]; [8]
  Average PWL Post-Treatment: 273.2
  PWL Change: 182.3 s
[2]; [9]
  Average PWL Post-CFA: 91.1
[2]; [10]
  Average PWL Post-CFA: 90.4
[2]; [11]
  Average PWL Post-CFA: 90.9
Human TRPA1
  IC50: 6 nM

## CC(=O)Cn1c(=O)c2c(ncn2[C@@H](C)C(=O)Nc2cccc(-c3cnc(N4CC5C(C4)C5(F)F)nc3)n2)n(C)c1=O (stereo partly drawn) [Compound 25, (2S)—N-(6-(2-(6,6-difluoro-3-azabicyclo[3.1.0]hexan-3-yl)pyrimidin-5-yl)pyridin-2-yl)-2-(3-methyl-2,6-dioxo-1-(2-oxopropyl)-2,3-dihydro-1H-purin-7(6H)-yl)propanamide]
[1]; [3]
  Duration (0-2 Minutes) Average: 87.8 s
  Duration (0-5 Minutes) Average: 190.1 s
[1]; [4]
  Duration (0-2 Minutes) Average: 22.8 s
  Duration (0-5 Minutes) Average: 98.3 s
[1]; [5]
  Duration (0-2 Minutes) Average: 29.1 s
  Duration (0-5 Minutes) Average: 146.0 s
[2]; [6]
  Average PWL Post-Treatment: 170.2
  PWL Change: 65.2 s
[2]; [7]
  Average PWL Post-Treatment: 224.8
  PWL Change: 119.7 s
[2]; [8]
  Average PWL Post-Treatment: 259.9
  PWL Change: 154.9 s
[2]; [9]
  Average PWL Post-CFA: 105.0
[2]; [10]
  Average PWL Post-CFA: 105.1
[2]; [11]
  Average PWL Post-CFA: 105.1
Human TRPA1
  IC50: 4 nM

## CC(=O)Cn1c(=O)c2c(ncn2[C@@H](C)C(=O)Nc2ccnc(-c3cnc(N4CC5C(C4)C5(F)F)nc3)n2)n(C)c1=O (stereo partly drawn) [Compound 61, (2S)—N-(2′-(6,6-difluoro-3-azabicyclo[3.1.0]hexan-3-yl)-[2,5′-bipyrimidin]-4-yl)-2-(3-methyl-2,6-dioxo-1-(2-oxopropyl)-2,3-dihydro-1H-purin-7(6H)-yl)propanamide]
[1]; [3]
  Duration (0-2 Minutes) Average: 89.4 s
  Duration (0-5 Minutes) Average: 149.3 s
[1]; [4]
  Duration (0-2 Minutes) Average: 90.3 s
  Duration (0-5 Minutes) Average: 152.3 s
[1]; [5]
  Duration (0-2 Minutes) Average: 52.8 s
  Duration (0-5 Minutes) Average: 120.0 s
[2]; [6]
  Average PWL Post-Treatment: 157.1
  PWL Change: 60.9 s
[2]; [7]
  Average PWL Post-Treatment: 235.4
  PWL Change: 139.4 s
[2]; [8]
  Average PWL Post-Treatment: 278.5
  PWL Change: 182.7 s
[2]; [9]
  Average PWL Post-CFA: 96.2
[2]; [10]
  Average PWL Post-CFA: 96.0
[2]; [11]
  Average PWL Post-CFA: 95.8
Human TRPA1
  IC50: 8 nM

## Cc1cc(Cn2c(=O)c3c(ncn3[C@@H](C)C(=O)Nc3cncc(-c4cnc(C(F)(F)F)nc4)n3)n(C)c2=O)no1 [Compound 21, (S)-2-(3-methyl-1-((5-methylisoxazol-3-yl)methyl)-2,6-dioxo-2,3-dihydro-1H-purin-7(6H)-yl)-N-(6-(2-(trifluoromethyl)pyrimidin-5-yl)pyrazin-2-yl)propanamide]
[1]; [3]
  Duration (0-2 Minutes) Average: 99.6 s
  Duration (0-5 Minutes) Average: 206.9 s
[1]; [12]
  Duration (0-2 Minutes) Average: 80.5 s
  Duration (0-5 Minutes) Average: 202.5 s
[1]; [4]
  Duration (0-2 Minutes) Average: 97.5 s
  Duration (0-5 Minutes) Average: 186.9 s
[1]; [13]
  Duration (0-2 Minutes) Average: 86.5 s
  Duration (0-5 Minutes) Average: 190.1 s
[1]; [5]
  Duration (0-2 Minutes) Average: 71.8 s
  Duration (0-5 Minutes) Average: 116.5 s
[1]; [14]
  Duration (0-2 Minutes) Average: 78.0 s and 92.3 s
  Duration (0-5 Minutes) Average: 202.8 s and 163.1 s
[1]; [15]
  Duration (0-2 Minutes) Average: 100.5 s
  Duration (0-5 Minutes) Average: 165.4 s
[2]; [6]
  Average PWL Post-Treatment: 159.2
  PWL Change: 49.6 s
[2]; [16]
  Average PWL Post-Treatment: 106.4
  PWL Change: 11.9 s
[2]; [7]
  Average PWL Post-Treatment: 208.5
  PWL Change: 94.2 s
[2]; [17]
  Average PWL Post-Treatment: 155.2
  PWL Change: 59.8 s
[2]; [8]
  Average PWL Post-Treatment: 258.9
  PWL Change: 148.8 s
[2]; [18]
  Average PWL Post-Treatment: 236.7
  PWL Change: 142.4 s
[2]; [9]
  Average PWL Post-CFA: 109.6
[2]; group 0.3 mg/kg PO, suspension in 0.5% methylcellulose
  Average PWL Post-CFA: 94.5
[2]; [10]
  Average PWL Post-CFA: 114.3
[2]; group 1 mg/kg PO, suspension in 0.5% methylcellulose
  Average PWL Post-CFA: 95.4
[2]; [11]
  Average PWL Post-CFA: 110.1
[2]; group 3 mg/kg PO, suspension in 0.5% methylcellulose
  Average PWL Post-CFA: 94.3
Human TRPA1
  IC50: 19 nM
